The values below come from patent US11434241B2, “Pyrimidine derivatives for prevention and treatment of bacterial infections” (UNIVERSITE DE LIEGE, priority 2018, dated 2022).

What is called pIC50 is −log10 of the IC50, conventionally taken in molar units. As a reminder, the MBC is the lowest tested concentration that kills the bacteria rather than only halting them. A lower MBC goes with more potent killing.

pIC50: −log10 of the molar value. Converted amounts (≈) assume the structure as drawn. Read-outs that look alike come from different tables or passages of the source. Bounds are passed on as bounds.

The test system of experiment [1] is S. aureus Xen29 (ATCC 12600). The experiment can be described thus: MIC determination on bioluminescent S. aureus Xen29. The class given is cell-based, Staphylococcus aureus. As to conditions: for MIC: Staphylococcus aureus. As for the experimental part:
(§1) Further experiments are conducted using different strains of S. aureus, as clinically relevant Gram-positive bacterial strains: S. aureus ATCC 25904, methicillin-resistant S. aureus (MRSA) ATCC BAA-1556, Glycopeptide intermediate-resistant (GISA) S. aureus Mu-50 (ATCC 700695) in order to determine the Minimal Inhibitory Concentration (MIC) which is the minimal concentration required to prevent bacterial growth. The bioluminescent strain S. aureus Xen29 (ATCC 12600) was also used. This strain is derived from the parental strain S. aureus ATCC 12600, a pleural fluid isolate, which is also designated as NCTC8532.
(§2) A single colony selected from the different strains of S. aureus is resuspended and cultured in brain heart infusion (BHI) broth overnight (O/N) in aerobic conditions (37° C. with 220 rpm shaking), next day a 1:100 inoculum in Mueller-Hinton broth (MHB) is incubated in aerobic conditions for 3 hr (=OD0.08-0.1) and an inoculum of 1:300 dilution, corresponding to 3×10^5 CFU/ml, is incubated in presence or absence of different concentrations of the tested molecules in 1% DMSO. After O/N growth the OD of each culture was measured at 600 nm (OD600) in a spectrophotometer (Victor 3-Perkin Elmer). The MIC represents the concentration at which there is no visible growth of bacteria, i.e. ΔOD at 600 nm equal to zero (blank is the medium alone). […] The MIC of molecule 2329 against Glycopeptide intermediate-resistant (GISA) S. aureus Mu-50 (ATCC 700695) is in between 25 and 30 μM, while it is above 50 μM for molecules 2348, 2412, and 2452.
(§3) Further experiments are conducted using different strains of S. aureus, as clinically relevant Gram-positive bacterial strains: methicillin-resistant S. aureus (MRSA) ATCC BAA-1556 and S. aureus Xen29 (Perkin Elmer ATCC 12600).
(§4) To determine the MIC of the above mentioned molecules in MRSA or in Xen29, a single colony of MRSA or Xen29 is resuspended and cultured in brain heart infusion (BHI) broth overnight (O/N) in aerobic conditions (37° C. with 220 rpm shaking), next day a 1:100 inoculum in Mueller-Hinton broth (MHB) is incubated in aerobic conditions for 3 hr (OD=0.08-0.1) and an inoculum of 1:300 dilution, corresponding to 3×10^5 CFU/ml, is incubated in presence or absence of different concentrations of the tested molecules in 1% DMSO. After O/N growth the OD of each culture was measured at 600 nm (OD600) in a spectrophotometer (Victor 3-Perkin Elmer). The MIC represents the concentration at which there is no visible growth of bacteria, i.e. ΔOD at 600 nm equal to zero (blank is the medium alone).
(§5) Molecule 36z has been tested for its potential antibacterial activity by determining its minimal inhibitory concentration (MIC) according to protocols recommended by EUCAST to assess the efficacy of antibiotics against bacterial strains. In brief MIC in MRSA (ATCC BAA-1556) or in Xen29 (Perkin Elmer-ATCC 12600) for 36z (molecule 25 in WO2009/034386) was determined by culturing a single colony of MRSA or Xen29 in brain heart infusion (BHI) broth overnight (O/N) in aerobic conditions (37° C. with 220 rpm shaking), while MIC for MRSE (ATCC 35984) was determined by culturing MRSE in TSB O/N. Next day a 1:100 inoculum in Mueller-Hinton broth (MHB) is incubated in aerobic conditions for 3 hr (OD=0.08-0.1) and an inoculum of 1:300 dilution, corresponding to 3×10^5 CFU/ml, is incubated in presence or absence of different concentrations of the tested molecules in 1% DMSO. After O/N growth the OD of each culture was measured at 600 nm (OD600) in a spectrophotometer (Victor 3-Perkin Elmer). The MIC represents the concentration at which there is no visible growth of bacteria, i.e. ΔOD at 600 nm equal to zero (blank is the medium alone). No antibacterial activity was found against MRSA (ATCC BAA-1556), Xen29 (Perkin Elmer-ATCC 12600 or MRSE (ATCC 35984) strains when the molecule was used at concentrations up to 200 μM.

Experiment [2] concerns methicillin-resistant S. aureus (MRSA) ATCC BAA-1556. The experiment can be described thus: MIC determination on methicillin-resistant S. aureus. Format: cell-based, Staphylococcus aureus. To be noted: for MIC: Staphylococcus aureus; for antibacterial activity against MRSA (in words): MHB medium. Here is the method:
as §1, §2, §3, §4, §5

A further experiment deals with S. aureus ATCC 25904. The experiment can be described thus: MIC determination on S. aureus ATCC 25904. The class given is cell-based. As to conditions: Staphylococcus aureus, ATCC25904, read-out: MIC S. aureus ATCC25904. As for the experimental part:
as §1, §2

Experiment [3] deals with vancomycin-resistant (VRE) E. faecalis ATCC BAA-2365. The experiment can be described thus: MIC determination on vancomycin-resistant E. faecalis. To be noted: Mueller-Hinton broth (MHB). Format: cell-based, Enterococcus faecalis. As for the experimental part: Further experiments were conducted using the clinically relevant Gram-positive bacterial strain of vancomycin-resistant (VRE) E. faecalis ATCC BAA-2365, in order to determine the Minimal Inhibitory Concentration (MIC) which is the minimal concentration required to prevent bacterial growth.
A single colony selected from E. faecalis VRE is resuspended and cultured in the brain heart infusion (BHI) broth overnight (O/N) in aerobic conditions (37° C. with 220 rpm shaking), next day a 1:100 inoculum in Mueller-Hinton broth (MHB) is incubated in aerobic conditions for 3 hr (OD=0.08-0.1) and an inoculum of 1:300 dilution, corresponding to 3×10^5 CFU/ml, is incubated in presence or absence of different concentrations of the tested molecules in 1% DMSO. After O/N growth the OD of each culture is measured at 600 nm (OD600) in a spectrophotometer (Victor 3-Perkin Elmer). The MIC represents the concentration at which there is no visible growth of bacteria, i.e. ΔOD at 600 nm equal to zero (blank is the medium alone).

For experiment [4], the system named is Staphylococcus epidermidis (ATCC 35984, also known as RP62A or MRSE). The experiment can be described thus: MIC determination on S. epidermidis (EUCAST, OD600 after overnight growth in MHB). The class given is cell-based. To be noted: for MIC: Staphylococcus epidermidis. Here is the method: The Minimal Inhibitory Concentration (MIC) of molecules 2329, 2348, 2412, 2452 and 2461 was determined on Staphylococcus epidermidis (ATCC 35984, also known as RP62A) according to EUCAST (European Committee on Antimicrobial Susceptibility Testing) recommendations.
Briefly, a single colony grown on a Tryptic Soy Agar (TSA) plate was resuspended and cultured in Tryptic Soy Broth (TSB) overnight (O/N) in aerobic conditions (37° C. with 220 rpm shaking), next day a 1:50 inoculum in Mueller-Hinton broth (MHB) was incubated in aerobic conditions for 3 hr and an inoculum of 1:100 dilution, corresponding to 3×10^5 CFU/ml, was incubated in presence or absence of different concentrations of the molecules in 1% DMSO (vehicle). After O/N growth the OD of each culture was measured at 600 nm in a spectrophotometer (OD600). The MIC represents the concentration at which there is no visible growth of bacteria, i.e. ΔOD at 600 nm equal to zero (blank is the medium alone).
The Minimal Inhibitory Concentration (MIC) of pyrazolopyrimidine molecules 2539, 2544, 2666,2676, 2693, 2783, 2784 and 2782 and of purine molecules 2498, 2511, 2525, 2527, 2833, and 2840 was determined on S. epidermidis (ATCC 35984, also known as RP62A or MRSE) according to EUCAST (European Committee on Antimicrobial Susceptibility Testing) recommendations.
Briefly, a single colony grown on an agar plate was resuspended and cultured in Triptic Soy Broth (TSB) medium overnight (O/N) in aerobic conditions (37° C. with 220 rpm shaking), next day a 1:50 inoculum in Mueller-Hinton broth (MHB) was incubated in aerobic conditions for 3 hr (OD=0.08-0.1) and an inoculum of 1:300 dilution, corresponding to 3×10^5 CFU/ml, was incubated in presence or absence of different concentrations of each of the molecules in 1% DMSO (vehicle). After O/N growth the OD of each culture was measured at 600 nm (600) in a spectrophotometer (Victor 3-Perkin Elmer). The MIC represents the concentration at which there is no visible growth of bacteria, i.e. ΔOD at 600 nm equal to zero (where ΔOD is the difference between the OD with the molecule and the OD of the blank, the medium alone).
as §5

Experiment [5] concerns Murl isozyme from E. faecium. To be noted: Table 9 of WO2009/034386; cited from earlier work.
The subject of the next experiment is MRSE. The experiment can be described thus: Minimal Bactericidal Concentration (MBC) for MRSE. The class given is cell-based, Staphylococcus epidermidis. Here is the method:
We have determined the Minimal Bactericidal Concentration (MBC) of the pyrazolopyrimidine molecule 2666 for the MRSA strain and the MBC of the purine molecules 2329 and 2833 for MRSA and the MRSE strain respectively.
To determine the MBC, bacteria were grown as per MIC determination in presence of the pyrazolopyrimidine molecule 2666 for MRSA or in presence of the purine molecule 2833 for MRSE or 2329 for MRSA. At 24 hours bacteria were plated on TSB agar plates by the broth microdilution method, and colonies formed on the plates were counted next day.
The MBC represents the lowest concentration at which 99.9% bacteria of the initial inoculum are killed over 24 hours.

Experiment [6] deals with Murl isozyme from E. faecalis (Enterococcus faecalis, UniProt Q836J0). To be noted: read-out: IC50 Murl isozyme from E. faecalis; Table 9 of WO2009/034386; cited from earlier work.
Chain of Murl isozyme from E. faecalis (Q836J0 whole entry): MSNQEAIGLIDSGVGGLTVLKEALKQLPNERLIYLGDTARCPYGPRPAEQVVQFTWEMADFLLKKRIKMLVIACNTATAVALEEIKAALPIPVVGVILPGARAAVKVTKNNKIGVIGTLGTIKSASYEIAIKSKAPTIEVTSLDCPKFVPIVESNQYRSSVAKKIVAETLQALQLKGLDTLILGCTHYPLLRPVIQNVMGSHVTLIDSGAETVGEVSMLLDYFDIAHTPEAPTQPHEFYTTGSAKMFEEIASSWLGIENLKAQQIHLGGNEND
Where [7] appears, read: ATCC12600, read-out: MIC Xen29 (comparison molecules of WO2009/034386).
[8] abbreviates: read-out: MIC MRSA (comparison molecules of WO2009/034386).
Setting [9] is: read-out: MIC MRSE (comparison molecules of WO2009/034386).
[10] abbreviates: MHB medium, tested up to 100 μM, read-out: MIC MRSE.

For `CCCSc1nc(N[C@@H]2C[C@H]2c2ccc(F)c(F)c2)c2ncn([C@@H]3C[C@H](O)[C@@H](O)[C@H]3O)c2n1` [Molecule 2461, (1S,2R,3S,4R)-4-(6-(((1R,2S)-2-(3,4-difluorophenyl)cyclopropyl)amino)-2-(propylthio)-9H-purin-9-yl)cyclopentane-1,2,3-triol], the MIC is 20 to 25 µM (≈ 9.55 to 11.9 µg/mL) in experiment [1] (ATCC12600, read-out: MIC S. aureus Xen29); 25 µM (≈ 11.9 µg/mL) in experiment [2] (read-out: MIC S. aureus MRSA); 20 to 25 µM (≈ 9.55 to 11.9 µg/mL) in the experiment on S. aureus ATCC 25904; 25 µM (≈ 11.9 µg/mL) in experiment [3]; 20 µM (≈ 9.55 µg/mL) in experiment [4] (Mueller-Hinton broth (MHB), read-out: MIC S. epidermidis RP62).

On to `CCCCOc1nc(NC2CC2)c2ncn(Cc3c(F)ccc(C)c3F)c2n1` [38z″, 2-Butoxy-N-cyclopropyl-9-(2,6-difluoro-3-methylbenzyl)-9H-purin-6-amine, reference compound], for which the MIC in experiment [1] (setting [7]), in experiment [2] (setting [8]) and in experiment [4] (setting [9]) was above 200 µM throughout.

`CCCCOc1nc(NCc2cccnc2)c2ncn(Cc3c(F)ccc(Cl)c3F)c2n1` [37z″, 2-Butoxy-9-(3-chloro-2,6-difluorobenzyl)-N-(pyridin-3-ylmethyl)-9H-purin-6-amine, reference compound]: the MIC in experiment [1] (setting [7]), in experiment [2] (setting [8]) and in experiment [4] (setting [9]) was above 200 µM throughout. For the same compound, in experiment [5], the pIC50 is 5.30.

In the case of `CCCCSc1nc(N[C@@H]2C[C@H]2c2ccc(F)c(F)c2)c2ncn(C)c2n1` [Molecule 2833, 2-(butylthio)-N-((1R,2S)-2-(3,4-difluorophenyl)cyclopropyl)-9-methyl-9H-purin-6-amine], the “antibacterial activity against MRSA (in words)” value in experiment [2] is given as “active”. Besides, the MIC was determined as 50 µM (≈ 19.5 µg/mL) in experiment [2] (read-out: MIC MRSA) and 30 µM (≈ 11.7 µg/mL) in experiment [4] (setting [10]). For the same compound, the “antibacterial activity / inhibition of MRSE growth (in words)” value in experiment [4] (MHB medium) is “able to inhibit MRSE growth”. Moreover, the “MBC relative to MIC, MRSE” value in the experiment with MRSE is recorded as “around 2 times”. In the experiment on MRSE (Staphylococcus epidermidis, MRSE, 99.9% of initial inoculum killed over 24 hours), this compound had an MBC of 50 µM (≈ 19.5 µg/mL).

With `CCn1ncc2c(N[C@@H]3C[C@H]3c3ccc(F)c(F)c3)nc(SC)nc21` [Molecule 2544, N-((1R,2S)-2-(3,4-difluorophenyl)cyclopropyl)-1-ethyl-6-(methylthio)-1H-pyrazolo[3,4-d]pyrimidin-4-amine], in experiment [1] (MHB medium), the “antibacterial activity / inhibition of Xen29 growth (in words)” value is given as “able to inhibit”. Besides, the MIC in experiment [1] (ATCC12600, read-out: MIC Xen29) amounted to 50 µM (≈ 18.1 µg/mL); in experiment [2] (read-out: MIC MRSA) it was 50 µM (≈ 18.1 µg/mL); in experiment [4] (setting [10]), 80 µM (≈ 28.9 µg/mL). In addition, the “antibacterial activity against MRSA (in words)” value in experiment [2] is reported as “active”. The “antibacterial activity / inhibition of MRSE growth (in words)” value in experiment [4] (MHB medium) was “able to inhibit MRSE growth”.

Regarding `CCCCSc1nc(N)c2ncn(Cc3c(F)ccc(Cl)c3F)c2n1` [Molecule 36z, 2-(Butylthio)-9-(3-chloro-2,6-difluorobenzyl)-9H-purin-6-amine, reference compound], the MIC in experiment [1] (setting [7]), in experiment [2] (setting [8]) and in experiment [4] (setting [9]) was above 200 µM throughout. In addition, the pIC50 in experiment [5] was 5.30; in experiment [6] it was 5.70.
